According to patent publication US7186743B2, “Substituted pyrazolyl compounds for the treatment of inflammation” (Pharmacia Corporation, priority 2001, dated 2007):
Counter-ions that a name gives are not always drawn. Like-named read-outs stand apart in the source and are kept apart here.

Molecular target: T1, IKK2 (Homo sapiens, UniProt O14920)
T1 construct: made in house; host or cells: insect cells (baculovirus, pFastBac; SF9)
T1 sequence (O14920 1-756): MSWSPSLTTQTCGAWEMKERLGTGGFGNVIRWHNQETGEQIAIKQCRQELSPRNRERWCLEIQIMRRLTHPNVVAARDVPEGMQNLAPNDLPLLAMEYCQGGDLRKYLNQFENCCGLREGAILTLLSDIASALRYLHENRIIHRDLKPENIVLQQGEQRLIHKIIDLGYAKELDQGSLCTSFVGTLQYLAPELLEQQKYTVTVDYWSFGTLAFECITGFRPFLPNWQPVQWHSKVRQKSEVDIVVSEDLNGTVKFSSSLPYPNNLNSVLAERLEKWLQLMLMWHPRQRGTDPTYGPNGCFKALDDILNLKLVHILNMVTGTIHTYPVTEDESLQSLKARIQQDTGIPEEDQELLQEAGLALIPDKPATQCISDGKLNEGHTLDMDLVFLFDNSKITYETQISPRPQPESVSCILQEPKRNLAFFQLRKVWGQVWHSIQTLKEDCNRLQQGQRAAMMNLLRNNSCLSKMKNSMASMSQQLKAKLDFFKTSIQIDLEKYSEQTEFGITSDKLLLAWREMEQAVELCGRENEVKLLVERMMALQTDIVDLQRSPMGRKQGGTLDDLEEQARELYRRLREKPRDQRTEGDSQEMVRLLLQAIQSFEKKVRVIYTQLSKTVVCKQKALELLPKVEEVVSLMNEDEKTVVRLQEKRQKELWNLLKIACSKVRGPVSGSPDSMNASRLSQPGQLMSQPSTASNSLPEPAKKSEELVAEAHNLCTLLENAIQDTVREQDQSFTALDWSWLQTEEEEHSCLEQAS
Assay: IKKβ Resin Enzyme Assay (IKK2 resin)
Type: biochemical
Source text: cDNAs of human IKK1 and IKK2 were amplified by reverse transcriptase-polymerase chain reaction from human placental RNA (Clonetech). hIKK1 was subcloned into pFastBac HTa (Life Technologies) and expressed as N-terminal His6-tagged fusion protein. The hIKK2 cDNA was amplified using a reverse oligonucleotide primer which incorporated the peptide sequence for a FLAG-epitope tag at the C-terminus of the IKK2 coding region ([…]). The hIKK2:FLAG cDNA was subcloned into the baculovirus vector pFastBac. The rhIKK2 ([…]) mutant was constructed in the same vector used for wild type rhIKK2 using a QuikChange™ mutagenesis kit (Stratagene). Viral stocks of each construct were used to infect insect cells grown in 40 L suspension culture. […] Cell lysates were stored at −80° C. until purification of the recombinant proteins was undertaken as described below.
A 10-liter culture of baculovirus-expressing IKK2 tagged with FLAG peptide was centrifuged and the cell pellet (MOI=0.1 and I=72 hrs) was re-suspended in buffer A. These cells were microfluidized, and centrifuged at 100,000×g for 45 min. Supernatant was passed over a G-25 column equilibrated with Buffer A. Protein peak was collected and incubated with anti-FLAG affinity resin on a rotator overnight in buffer B. The resin was washed in batch with 10–15 bed volumes of buffer C. Washed resin was poured into a column and rhIKK2 homodimer was eluted using 5 bed volumes of buffer B containing FLAG peptide. 5 mM DTT, 0.1% NP-40 and BSA (concentrated to 0.1% in final amount) was added to the eluted enzyme before concentrating in using an Amicon membrane with a molecular weight cut-off of 30 kDa. Enzyme was aliquoted and stored at −80° C.
IKKβ kinase activity was measured using a biotinylated IκBα peptide ([…]32-Gly-Leu-Asp-Ser36-Met-Lys-Asp-Glu-Glu) (American Peptide Co.). […] ATP (Amersham) (about 1×10^5 cpm), 1 μM ATP (Sigma), 1 mM DTT (Sigma), 2 mM MgCl2 (Sigma), 2 mM MnCl2 (Sigma), 10 mM NaF (Sigma), 25 mM Hepes (Sigma) buffer, pH 7.6 and 20 μl enzyme solution and 10 ul inhibitor in a final volume of 50 μl. After incubation at 25° C. for 30 min, 150 μl resin (Dowex anion-exchange resin AG1X8 200–400 mesh) in 900 mM formate, pH 3.0 was added to each well to stop the reaction. Resin was allowed to settle for one hour and 50 ul of supernatant was removed to a Micolite-2 flat bottom plate (Dynex). 150 μl of scintillation fluid (Microscint 40) (Packard) was added to each well. Incorporation of [γ-^33P] ATP was measured using a Top-Count NXT (Packard).

[1] = Table 4, read-out: IKK2 Resin IC50
[2] = Table 14, read-out: IKK2 Resin IC50
[3] = Table 3, read-out: IKK Resin IC50
[4] = Table 2, read-out: IKK Resin IC50
[5] = Table 21, read-out: IKK2 Resin IC50

COc1ccc(C(=O)Nc2ccc3c(c2)-c2c(c(C(N)=O)nn2-c2ccc4c(c2)OCO4)CC3)c(Cl)c1OC [Example 175, 1-(1,3-benzodioxol-5-yl)-8-[(2-chloro-3,4-dimethoxybenzoyl)amino]-4,5-dihydro-1H-benzo[g]indazole-3-carboxamide]
IC50 [1]: ≤ 1000 nM

COc1ccc(Cl)c(C(=O)Nc2ccc3c(c2)-c2c(c(C(N)=O)nn2-c2ccc4c(c2)OCO4)CC3)c1 [Example 178, 1-(1,3-benzodioxol-5-yl)-8-[(2-chloro-5-methoxybenzoyl)amino]-4,5-dihydro-1H-benzo[g]indazole-3-carboxamide]
IC50 [1]: ≤ 1000 nM

NC(=O)c1nn(-c2ccc(S(=O)(=O)C(F)(F)F)cc2)c2c1CCc1ccc(NC(=O)c3ccncc3Cl)cc1-2 [Example 358, 8-[(3-chloroisonicotinoyl)amino]-1-{4-[(trifluoromethyl)sulfonyl]phenyl}-4,5-dihydro-1H-benzo[g]indazole-3-carboxamide hydrochloride]
IC50 [2]: ≤ 1000 nM

CS(=O)(=O)c1ccc(-n2nc(C(N)=O)c3c2-c2cc(NC(=O)c4ccc([N+](=O)[O-])cc4Cl)ccc2CC3)cc1 [Example 146, 8-[(2-chloro-4-nitrobenzoyl)amino]-1-[4-(methylsulfonyl)phenyl]-4,5-dihydro-1H-benzo[g]indazole-3-carboxamide]
IC50 [3]: ≤ 1000 nM

CS(=O)(=O)c1ccc(-n2nc(C(N)=O)c3c2-c2cc(NC(=O)c4ccccc4[N+](=O)[O-])ccc2CC3)cc1 [Example 102, 1-[4-(methylsulfonyl)phenyl]-8-[(2-nitrobenzoyl)amino]-4,5-dihydro-1H-benzo[g]indazole-3-carboxamide]
IC50 [4]: ≤ 1000 nM

CSc1ccc(Cl)c(C(=O)Nc2ccc3c(c2)-c2c(c(C(N)=O)nn2-c2ccc(F)cc2)CC3)c1 [Example 235, 8-{[2-chloro-5-(methylthio)benzoyl]amino}-1-(4-fluorophenyl)-4,5-dihydro-1H-benzo[g]indazole-3-carboxamide]
IC50 (Table 6, read-out: IKK2 Resin IC 50): ≤ 1000 nM

Cc1ccc(-n2nc(C(N)=O)c3c2-c2cc(NC(=O)c4ccccc4Cl)ccc2CC3)cc1 [Example 335, 8-[(2-chlorobenzoyl)amino]-1-(4-methylphenyl)-4,5-dihydro-1H-benzo[g]indazole-3-carboxamide]
IC50 [2]: ≤ 1000 nM

NC(=O)c1nn(-c2ccccc2)c2c1CCc1ccc(NC(=O)c3ccncc3Cl)cc1-2 [Example 331, 8-[(3-chloroisonicotinoyl)amino]-1-phenyl-4,5-dihydro-1H-benzo[g]indazole-3-carboxamide]
IC50 [2]: ≤ 1000 nM

NC(=O)c1nn(-c2cc(F)cc(F)c2)c2c1CCc1ccc(NC(=O)c3ccncc3Cl)cc1-2 [Example 355, 8-[(3-chloroisonicotinoyl)amino]-1-(3,5-difluorophenyl)-4,5-dihydro-1H-benzo[g]indazole-3-carboxamide]
IC50 [2]: ≤ 1000 nM

C#CCN(CC#C)S(=O)(=O)c1ccc(-n2nc(C(N)=O)c3c2-c2cc(N)ccc2CC3)cc1 [Example 425, 8-amino-1-{4-[(diprop-2-ynylamino)sulfonyl]phenyl}-4,5-dihydro-1H-benzo[g]indazole-3-carboxamide]
IC50 [5]: ≤ 1000 nM

NC(=O)c1nn(-c2ccc(F)cc2F)c2c1CCc1ccc(NC(=O)c3ccccc3Cl)cc1-2 [Example 353, 8-[(2-chlorobenzoyl)amino]-1-(2,4-difluorophenyl)-4,5-dihydro-1H-benzo[g]indazole-3-carboxamide]
IC50 [2]: ≤ 1000 nM

Cc1ccnc(Cl)c1C(=O)Nc1ccc2c(c1)-c1c(c(C(N)=O)nn1-c1cccc(O)c1)CC2 [Example 287, 8-{[(2-chloro-4-methylpyridin-3-yl)carbonyl]amino}-1-(3-hydroxyphenyl)-4,5-dihydro-1H-benzo[g]indazole-3-carboxamide]
IC50 (Table 10, read-out: IKK2 Resin IC50): ≤ 1000 nM

CCS(=O)(=O)c1ccc(-n2nc(C(N)=O)c3c2-c2cc(NC(=O)c4cc(N)ccc4Cl)ccc2CC3)cc1 [Example 398, 8-[(5-amino-2-chlorobenzoyl)amino]-1-[4-(ethylsulfonyl)phenyl]-4,5-dihydro-1H-benzo[g]indazole-3-carboxamide]
IC50 (Table 18, read-out: IKK2 Resin IC50): ≤ 1000 nM

COc1cccc(CC(=O)Nc2ccc3c(c2)-c2c(c(C(N)=O)nn2-c2ccc(S(C)(=O)=O)cc2)CC3)c1 [Example 157, 8-{[(3-methoxyphenyl)acetyl]amino}-1-[4-(methylsulfonyl)phenyl]-4,5-dihydro-1H-benzo[g]indazole-3-carboxamide]
IC50 [3]: ≤ 1000 nM

CN(C)S(=O)(=O)c1ccc(-n2nc(C(N)=O)c3c2-c2cc(NS(C)(=O)=O)ccc2CC3)cc1 [Example 426, 1-{4-[(dimethylamino)sulfonyl]phenyl}-8-[(methylsulfonyl)amino]-4,5-dihydro-1H-benzo[g]indazole-3-carboxamide]
IC50 [5]: ≤ 1000 nM

CSc1ccc(-n2nc(C(N)=O)c3c2-c2cc(NC(=O)c4cc(N)ccc4Cl)ccc2CC3)cc1 [Example 414, 8-[(5-amino-2-chlorobenzoyl)amino]-1-[4-(methylthio)phenyl]-4,5-dihydro-1H-benzo[g]indazole-3-carboxamide hydrochloride]
IC50 (Table 19, read-out: IKK2 Resin IC50): ≤ 1000 nM

CS(=O)(=O)c1ccc(-n2nc(C(N)=O)c3c2-c2cc(NC(=O)c4cc(F)c(F)cc4[N+](=O)[O-])ccc2CC3)cc1 [Example 149, 8-[(4,5-difluoro-2-nitrobenzoyl)amino]-1-[4-(methylsulfonyl)phenyl]-4,5-dihydro-1H-benzo[g]indazole-3-carboxamide]
IC50 [3]: ≤ 1000 nM

NC(=O)c1nn(-c2ccc3c(c2)OCO3)c2c1CCc1ccc(NC(=O)c3cccc(N)c3Cl)cc1-2 [Example 171, 8-[(3-amino-2-chlorobenzoyl)amino]-1-(1,3-benzodioxol-5-yl)-4,5-dihydro-1H-benzo[g]indazole-3-carboxamidehydrochloride]
IC50 [1]: ≤ 1000 nM

CN(C)c1ccc(Cl)c(C(=O)Nc2ccc3c(c2)-c2c(c(C(N)=O)nn2-c2ccc4c(c2)OCO4)CC3)c1 [Example 183, 1-(1,3-benzodioxol-5-yl)-8-{[2-chloro-5-(dimethylamino)benzoyl]amino}-4,5-dihydro-1H-benzo[g]indazole-3-carboxamide]
IC50 [1]: ≤ 1000 nM

C=Cc1ccc(-n2nc(C(N)=O)c3c2-c2cc(NC(=O)c4cccnc4Cl)ccc2CC3)cc1 [Example 389, 8-{[(2-chloropyridin-3-yl)carbonyl]amino}-1-(4-vinylphenyl)-4,5-dihydro-1H-benzo[g]indazole-3-carboxamide]
IC50 (Table 17, read-out: IKK2 Resin IC50): ≤ 1000 nM

CS(=O)(=O)c1ccc(-n2nc(C(N)=O)c3c2-c2cc(NC(=O)c4ccc(Cl)cc4N)ccc2CC3)cc1 [Example 117, 8-[(2-amino-4-chlorobenzoyl)amino]-1-[4-(methylsulfonyl)phenyl]-4,5-dihydro-1H-benzo[g]indazole-3-carboxamide]
IC50 [4]: ≤ 1000 nM

CC1(C)Cc2c(C(N)=O)nn(-c3ccc4c(c3)OCO4)c2-c2cc(NC(=O)c3cccnc3Cl)ccc21 [Example 434, 1-(1,3-benzodioxol-5-yl)-8-{[(2-chloropyridin-3-yl)carbonyl]amino}-5,5-dimethyl-4,5-dihydro-1H-benzo[g]indazole-3-carboxamide]
IC50 (Table 22, read-out: IKK2 Resin IC50): ≤ 1000 nM
